Measured values from patent publication US12398118B2, “Rho-associated protein kinase inhibitor, pharmaceutical composition comprising same, and use thereof” (BEIJING TIDE PHARMACEUTICAL CO., LTD., priority 2018, dated 2025).

Columns and labels:
ROCK2 = ROCK2 (Homo sapiens, UniProt O75116); assay: ROCK2 kinase IC50, HTRF KinEASE-STK S2 kit; assay type: biochemical; settings: 2 hours at room temperature
Experimental: (§1) The kinase IC50 was determined by a commercialized CISBIO kinase detection kit, HTRF KinEASE-STK S2 kit (62ST2PEC). ROCK2 (01-119) employed in the reaction was purchased from Carna Biosciences.
(§2) Before the assay, the following working solutions as needed were formulated with corresponding reagents according to the instruction of the kinase detection kit: 1×kinase buffer, 5×STK-S2 substrate working solution (1.5 μM) and 5×ATP working solution (1.5 μM), 5×ROCK2 kinase working solution, 4×Streptavidin-XL665 working solution, and 4×STK-Ab-Cryptate 2 detection solution. Then the assay was performed according to the following procedure.
(§3) A solution of a compound at a concentration of 10000 nM was prepared with the 1×kinase buffer containing 2.5% DMSO. Gradient dilution of the solution of the compound was performed with the kinase buffer containing DMSO, so as to obtain solutions of a test compound at 9 different concentrations. In addition to wells of test compounds, a positive well (containing all the reagents except the compound) and a negative well (containing all the reagents except the test compound and kinase) were set. Except for the control wells (positive and negative wells), a solution of a test compound (4 μL) was added to each of the reaction wells, and a solution of 2.5% DMSO was added to the control wells. Then the substrate (2 μM, i.e., 2 μL 5×STK-S2 substrate working solution) was added to each of the reaction wells. The 5×ROCK2 kinase working solution (2 μL, containing 1.4 ng ROCK2 kinase) was added to each of the reaction wells except for the negative well, the volume of which was made up with the 1×kinase buffer (2 μL). The 5×ATP working solution (2 μL) was added to each of the reaction wells, and the mixtures were incubated at room temperature for 2 hours. After the kinase reaction was complete, the 4×Streptavidin-XL665 working solution was added to each of the reaction wells, the solutions were mixed, followed by immediate addition of the 4×STK-Ab-Cryptate 2 detection solution (5 μL), and the mixtures were incubated at room temperature for 1 hour. The fluorescence signal was read on ENVISION (Perkinelmer) (excitation wavelength: 320 inn, and emission wavelength: 665 nm and 615 nm). The inhibitory rate in each well was calculated based on the fluorescence intensity value: ER (Emission Ratio)_(fluorescence intensity at 665 nm/fluorescence intensity at 615 nm); inhibitory rate=(ERpositive−ERtest compound)/(ERpositive−ERnegative)*100%. Curves were plotted and fitted to obtain the median inhibitory concentration (IC50) of each teat compound with the PRISM 5.0 software. According to a biological test method similar to the above, the IC50 values of the compounds on ROCK1 were also tested.

ROCK1 = ROCK1 (Homo sapiens (Human), UniProt Q13464); assay: ROCK1 kinase IC50, biological test method similar to ROCK2 assay; assay type: biochemical
ROCK1, sequence (Q13464 whole entry, species assumed): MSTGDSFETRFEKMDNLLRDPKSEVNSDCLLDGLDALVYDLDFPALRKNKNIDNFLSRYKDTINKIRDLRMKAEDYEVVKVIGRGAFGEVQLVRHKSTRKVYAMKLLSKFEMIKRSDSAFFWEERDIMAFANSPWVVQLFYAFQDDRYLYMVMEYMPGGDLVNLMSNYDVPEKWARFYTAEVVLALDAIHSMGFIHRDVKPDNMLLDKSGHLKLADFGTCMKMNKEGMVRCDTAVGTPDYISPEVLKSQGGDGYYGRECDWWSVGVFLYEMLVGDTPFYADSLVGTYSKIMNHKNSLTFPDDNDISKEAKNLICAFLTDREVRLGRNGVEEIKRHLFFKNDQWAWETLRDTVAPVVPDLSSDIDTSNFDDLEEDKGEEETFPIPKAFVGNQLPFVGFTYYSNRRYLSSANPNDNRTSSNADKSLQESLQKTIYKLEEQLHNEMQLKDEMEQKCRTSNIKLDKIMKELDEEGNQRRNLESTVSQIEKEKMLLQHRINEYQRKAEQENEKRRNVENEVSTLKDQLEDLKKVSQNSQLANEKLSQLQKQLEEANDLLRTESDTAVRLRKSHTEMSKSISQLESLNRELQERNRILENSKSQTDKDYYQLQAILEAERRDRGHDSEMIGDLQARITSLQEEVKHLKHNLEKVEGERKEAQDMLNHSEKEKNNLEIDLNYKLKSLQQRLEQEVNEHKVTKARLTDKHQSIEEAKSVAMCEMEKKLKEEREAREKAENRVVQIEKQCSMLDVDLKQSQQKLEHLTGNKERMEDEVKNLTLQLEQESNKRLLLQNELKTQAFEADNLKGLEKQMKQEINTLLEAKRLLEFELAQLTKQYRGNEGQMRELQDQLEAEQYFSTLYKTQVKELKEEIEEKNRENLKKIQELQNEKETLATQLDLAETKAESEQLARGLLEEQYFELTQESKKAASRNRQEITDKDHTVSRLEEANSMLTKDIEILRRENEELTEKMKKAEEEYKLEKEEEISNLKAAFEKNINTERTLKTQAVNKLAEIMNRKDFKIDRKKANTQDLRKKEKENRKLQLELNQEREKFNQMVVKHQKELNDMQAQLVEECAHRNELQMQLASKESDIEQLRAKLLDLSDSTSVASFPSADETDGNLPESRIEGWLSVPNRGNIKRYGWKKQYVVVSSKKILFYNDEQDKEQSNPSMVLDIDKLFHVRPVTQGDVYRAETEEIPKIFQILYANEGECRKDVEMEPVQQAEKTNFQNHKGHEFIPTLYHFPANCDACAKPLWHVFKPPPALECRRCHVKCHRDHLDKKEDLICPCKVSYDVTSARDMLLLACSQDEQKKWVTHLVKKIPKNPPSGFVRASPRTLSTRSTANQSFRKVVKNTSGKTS
Experimental: as §1, §2, §3

ROCK2, sequence (O75116 whole entry, looked up): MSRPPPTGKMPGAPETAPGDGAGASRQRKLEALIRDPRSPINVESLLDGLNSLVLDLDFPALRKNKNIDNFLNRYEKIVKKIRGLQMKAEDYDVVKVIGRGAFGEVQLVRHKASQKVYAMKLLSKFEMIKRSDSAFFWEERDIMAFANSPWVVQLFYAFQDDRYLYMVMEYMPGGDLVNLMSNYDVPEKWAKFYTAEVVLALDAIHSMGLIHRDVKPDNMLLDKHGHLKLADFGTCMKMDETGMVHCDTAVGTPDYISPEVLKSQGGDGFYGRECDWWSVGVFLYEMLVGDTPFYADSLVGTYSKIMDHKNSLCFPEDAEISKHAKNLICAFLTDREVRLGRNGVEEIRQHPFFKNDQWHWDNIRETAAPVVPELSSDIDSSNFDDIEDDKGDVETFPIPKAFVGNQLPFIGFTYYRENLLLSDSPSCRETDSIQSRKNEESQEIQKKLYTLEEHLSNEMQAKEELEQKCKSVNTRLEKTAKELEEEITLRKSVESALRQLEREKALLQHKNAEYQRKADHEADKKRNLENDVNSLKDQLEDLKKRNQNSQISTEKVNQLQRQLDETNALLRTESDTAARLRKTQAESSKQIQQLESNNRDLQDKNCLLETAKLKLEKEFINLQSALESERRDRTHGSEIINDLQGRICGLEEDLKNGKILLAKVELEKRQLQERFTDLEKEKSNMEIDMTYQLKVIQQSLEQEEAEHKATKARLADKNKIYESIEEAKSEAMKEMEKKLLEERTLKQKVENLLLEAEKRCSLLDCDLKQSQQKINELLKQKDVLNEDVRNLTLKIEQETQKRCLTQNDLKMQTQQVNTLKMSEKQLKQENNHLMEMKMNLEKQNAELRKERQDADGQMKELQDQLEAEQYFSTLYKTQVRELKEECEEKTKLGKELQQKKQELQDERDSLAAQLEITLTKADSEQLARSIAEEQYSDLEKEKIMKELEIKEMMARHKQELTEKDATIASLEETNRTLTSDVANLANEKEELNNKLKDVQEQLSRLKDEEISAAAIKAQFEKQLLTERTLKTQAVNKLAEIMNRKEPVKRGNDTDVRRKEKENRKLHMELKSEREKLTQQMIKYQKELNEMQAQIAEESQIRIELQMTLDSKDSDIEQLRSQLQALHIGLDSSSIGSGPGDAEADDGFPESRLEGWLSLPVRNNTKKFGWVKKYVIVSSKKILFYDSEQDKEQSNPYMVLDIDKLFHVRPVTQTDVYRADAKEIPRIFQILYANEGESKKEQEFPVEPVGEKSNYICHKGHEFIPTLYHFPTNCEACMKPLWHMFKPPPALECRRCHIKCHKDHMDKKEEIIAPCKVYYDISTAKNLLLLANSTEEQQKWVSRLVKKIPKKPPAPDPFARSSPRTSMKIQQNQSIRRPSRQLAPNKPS

Structure (SMILES)	IC50 (ROCK2) [nM]	IC50 (ROCK1) [nM]
O=C(C1CC(F)(F)C1)N1CCc2cc(-c3ncc(F)c(Nc4ccc5c(=O)[nH]ccc5c4)n3)ccc21 [C15, 6-((2-(1-(3,3-difluoroo-cyclobutane-1-carbonyl)indolin-5-yl)-5-fluoro-pyrimidin-4-yl)amino) isoquinolin-1-(2H)-one]	79	> 10000
CC(C)(C)OC(=O)N1CCc2cc(-c3ncc(F)c(Nc4ccc5c(=O)[nH]ccc5c4)n3)ccc21 [C17]	421	> 10000
CC(C)(C)OC(=O)N1Cc2ccc(-c3ncc(F)c(Nc4ccc5c(c4)CCNC5=O)n3)cc2C1 [C76, tert-butyl 5-(5-fluoro-4-((1-oxo-1,2,3,4-tetrahydro-isoquinolin-6-yl)amino)pyrimidin-2-yl) isoindoline-2-carboxylate]	49	> 10000
CC(C)(C)CC(=O)N1CCc2sc(-c3nccc(Nc4ccc5c(=O)[nH]ccc5c4)n3)cc2C1 [C57, 6-((2-(5-(3,3-dimethylbutanoyl)-4,5,6,7-tetrahydrothieno[3,2-c]pyridin-2-yl)pyrimidin-4-yl)amino)isoquinolin-1(2H)-one]	16	> 10000
CC(OC(=O)N1Cc2ccc(-c3ncc(F)c(Nc4ccc5c(=O)[nH]ccc5c4)n3)cc2C1)C(F)(F)F (stereo not shown) [C18, 1,1,1-trifluoro-propan-2-yl 5-(5-fluoro-4-((1-oxo-1,2-dihydro-isoquinolin-6-yl)amino)pyrimidin-2-yl) isoindoline-2-carboxylate]	31	> 10000
CN(CC(F)(F)F)C(=O)N1Cc2ccc(-c3ncc(F)c(Nc4ccc5c(c4)CCNC5=O)n3)cc2C1 [C78, 5-(5-fluoro-4-((1-oxo-1,2,3,4-tetrahydro-isoquinolin-6-yl)amino)pyrimidin-2-yl)-N-methyl-N-(2,2,2-trifluoro-ethyl) isoindoline-2-carboxylate]	40	> 10000
COCn1c(C(=O)N2CC(F)(F)C2)cc2ccc(-c3ncc(F)c(Nc4ccc5c(=O)[nH]ccc5c4)n3)cc21 [C20, 6-((2-(2-(3,3-difluoro-azetidine-1-carbonyl)-1-(methoxy-methyl)-1H-indol-6-yl)-5-fluoro-pyrimidin-4-yl)amino) isoquinolin-1(2H)-one]	238	> 10000
O=C(OC1CC(F)(F)C1)N1CCc2cc(-c3ncc(F)c(Nc4ccc5c(=O)[nH]ccc5c4)n3)ccc21 [C16]	19	> 10000
CC(OC(=O)N1CCc2cc(-c3nccc(Nc4ccc5c(c4)CCNC5=O)n3)ccc2C1)C(F)(F)F (stereo not shown) [C40, 1,1,1-trifluoro-propan-2-yl 6-(4-((1-oxo-1,2,3,4-tetrahydro-isoquinolin-6-yl)amino)pyrimidin-2-yl)-3,4-dihydro-isoquinolin-2(1H)-carboxylate]	270	> 10000
CC(C)(CC(=O)N1Cc2ccc(-c3ncc(F)c(Nc4ccc5c(c4)CCNC5=O)n3)cc2C1)C(F)(F)F [C82, 6-((5-fluoro-2-(2-(4,4,4-trifluoro-3,3-dimethyl-butanoyl)isoindolin-5-yl)pyrimidin-4-yl)amino)-3,4-dihydro-isoquinolin-1(2H)-one]	129	> 10000
O=C(OC1CC(F)(F)C1)N1CCc2cc(-c3ncc(F)c(Nc4ccc5c(=O)[nH]ccc5c4)n3)ccc2C1 [C23, 3,3-difluoro-cyclobutyl 6-(5-fluoro-4-((1-oxo-1,2-dihydro-isoquinolin-6-yl)amino)pyrimidin-2-yl)-3,4-dihydro-isoquinolin-2(1H)-carboxylate]	173	> 10000
CC(CC(=O)N1CCc2cc(-c3ncc(F)c(Nc4ccc5c(c4)CCNC5=O)n3)ccc21)C(F)(F)F (stereo not shown) [C74, 6-((5-fluoro-2-(1-(4,4,4-trifluoro-3-methyl-butanoyl)indolin-5-yl)pyrimidin-4-yl)amino)-3,4-dihydro-isoquinolin-1(2H)-one]	54	> 10000
O=C1NCCc2cc(Nc3nc(-c4ccc5c(c4)CN(C(=O)OC4CC(F)(F)C4)C5)ncc3F)ccc21 [C14, 3,3-difluoro-cyclobutyl 5-(5-fluoro-4-((1-oxo-1,2,3,4-tetrahydro-isoquinolin-6-yl)amino)pyrimidin-2-yl) isoindoline-2-carboxylate]	28	> 10000
O=C(OC1CC(F)(F)C1)N1Cc2ccc(-c3ncc(F)c(Nc4ccc5c(=O)[nH]ccc5c4)n3)cc2C1 [C10, 3,3-difluorocyclobutyl 5-(5-fluoro-4-((1-oxo-1,2-dihydroisoquinolin-6-yl)amino)pyrimidin-2-yl)isoindoline-2-carboxylate]	11	> 10000
